Data reported in US7420056B2, “Substituted bicyclic imidazo-3-ylamine compounds” (Gruenenthal GmbH, priority 2004, dated 2008).
pIC50: −log10 of the molar value.

Biological target: mGluR5 receptor (Sus scrofa, UniProt I3LUI7)
Experiment: Affinity for the mGluR5 receptor: inhibition of 3[H]-MPEP binding in pig brain homogenate
Conditions: for inhibition at 10 µM: 10 μM compound, 5 nM 3[H]-MPEP, read-out: mGluR5 receptor inhibition of ^3[H]-MPEP binding [10 μM] in % at a concentration of the example compounds of 10 μM; for pIC50: 3[H]-MPEP binding
Experimental: 1. Method for Determining Affinity for the mGluR5 Receptor
Pig brain homogenate is produced by homogenisation (Polytron Pt 3000, Kinematica AG, 10,000 revolutions per minute for 90 seconds) of pig brain hemispheres without medulla, cerebellum and pons in a buffer of pH 8.0 (30 mM Hepes, Sigma, order number H3375+1 tablet Complete Roche Diagnostics, order number 1836145 made up to 100 ml) in a ratio of 1:20 (brain weight/volume) and differential centrifugation at 900×g and 40,000×g. 450 μg of protein from brain homogenate is incubated in each case in 250 μl incubation batches in 96-well microtitre plates with 5 nM 3[H]-MPEP (Tocris, order number R1212) (MPEP=2-methyl-6-[…]) and the compounds to be investigated (10 μM in the test) in the buffer (as above) at room temperature for 60 minutes.
The batches are then filtered with the assistance of a Brandel Cell Harvester (Brandel, Grade Robotic 9600) on Unifilter plates with glass filter mats (Perkin Elmer, order number 6005177) and then washed 3 times with buffer (as above) using 250 μl per sample. The filter plates are then dried for 60 minutes at 55° C. Then 30 μl of Ultima Gold™ scintillating material (Packard BioScience, order number 6013159) is added per well and after 3 hours the samples are measured using the β counter (Microbeta, Perkin Elmer). Nonspecific binding is determined by the addition of 10 μM MPEP (Tocris, order number 1212).

mGluR5 receptor, sequence (I3LUI7 19-1212): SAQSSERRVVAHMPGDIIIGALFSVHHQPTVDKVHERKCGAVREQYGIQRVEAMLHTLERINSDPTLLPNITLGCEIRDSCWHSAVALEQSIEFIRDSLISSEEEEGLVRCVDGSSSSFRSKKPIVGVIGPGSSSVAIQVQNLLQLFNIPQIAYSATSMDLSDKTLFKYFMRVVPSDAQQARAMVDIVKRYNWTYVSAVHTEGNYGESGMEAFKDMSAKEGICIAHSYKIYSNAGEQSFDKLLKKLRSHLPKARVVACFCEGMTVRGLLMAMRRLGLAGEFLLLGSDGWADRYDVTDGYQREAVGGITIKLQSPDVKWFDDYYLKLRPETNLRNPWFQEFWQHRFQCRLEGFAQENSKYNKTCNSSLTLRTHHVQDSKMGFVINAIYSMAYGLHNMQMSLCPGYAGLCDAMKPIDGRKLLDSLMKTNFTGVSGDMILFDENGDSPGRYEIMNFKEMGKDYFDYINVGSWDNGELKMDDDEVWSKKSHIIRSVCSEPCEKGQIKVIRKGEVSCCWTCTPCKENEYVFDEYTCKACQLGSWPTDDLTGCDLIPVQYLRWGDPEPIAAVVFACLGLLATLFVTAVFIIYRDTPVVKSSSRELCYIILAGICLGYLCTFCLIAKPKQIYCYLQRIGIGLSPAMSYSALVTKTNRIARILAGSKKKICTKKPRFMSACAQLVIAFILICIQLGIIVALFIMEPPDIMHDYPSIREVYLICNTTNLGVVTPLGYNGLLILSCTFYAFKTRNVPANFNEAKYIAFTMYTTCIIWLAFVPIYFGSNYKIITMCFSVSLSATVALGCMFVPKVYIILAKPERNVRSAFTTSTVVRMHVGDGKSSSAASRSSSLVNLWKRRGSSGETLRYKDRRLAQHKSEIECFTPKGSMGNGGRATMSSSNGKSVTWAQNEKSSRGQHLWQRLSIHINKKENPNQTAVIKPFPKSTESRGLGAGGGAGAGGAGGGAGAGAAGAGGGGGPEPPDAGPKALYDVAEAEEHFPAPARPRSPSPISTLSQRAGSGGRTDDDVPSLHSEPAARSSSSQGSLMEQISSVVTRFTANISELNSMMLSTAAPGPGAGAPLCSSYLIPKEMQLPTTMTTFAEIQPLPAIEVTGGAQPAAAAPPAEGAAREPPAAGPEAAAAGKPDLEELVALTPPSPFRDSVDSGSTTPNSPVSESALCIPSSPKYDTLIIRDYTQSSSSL

inhibition at 10 µM [%] | pIC50 | SMILES
52 | – | C(#Cc1ccc(-c2nc3cnccn3c2NC2CCCC2)s1)c1ccccc1 [Example 1, cyclopentyl-[2-(5-phenylethynyl-thiophen-2-yl)-imidazo[1,2-a]pyrazin-3-yl]-amine]
100 | – | C(#Cc1ccc(-c2nc3cnccn3c2NCC2CCCCC2)s1)c1ccccc1 [Example 8, cyclohexylmethyl-[2-(5-phenylethynyl-thiophen-2-yl)-imidazo[1,2-a]pyrazin-3-yl]-amine]
95 | – | COc1ccc(CNc2c(-c3ccc(C#Cc4ccccc4)s3)nc3cccc(C)n23)cc1 [Example 10, (4-methoxy-benzyl)-[5-methyl-2-(5-phenylethynyl-thiophen-2-yl)-imidazo[1,2-a]pyridin-3-yl]-amine]
82 | – | COc1ccc(CNc2c(-c3ccc(C#Cc4ccccc4)s3)nc3ccc(C)cn23)cc1 [Example 11, (4-methoxy-benzyl)-[6-methyl-2-(5-phenylethynyl-thiophen-2-yl)-imidazo[1,2-a]pyridin-3-yl]-amine]
96 | – | COc1ccc(CNc2c(-c3ccc(C#Cc4ccccc4)s3)nc3cc(C)ccn23)cc1 [Example 12, (4-methoxy-benzyl)-[7-methyl-2-(5-phenylethynyl-thiophen-2-yl)-imidazo[1,2-a]pyridin-3-yl]-amine]
96 | – | COc1ccc(CNc2c(-c3ccc(C#Cc4ccccc4)s3)nc3c(C)cccn23)cc1 [Example 13, (4-methoxy-benzyl)-[8-methyl-2-(5-phenylethynyl-thiophen-2-yl)-imidazo[1,2-a]pyridin-3-yl]-amine]
100 | – | COc1ccc(CNc2c(-c3ccc(C#Cc4ccccc4)s3)nc3cc(C)cc(C)n23)cc1 [Example 14, [5,7-dimethyl-2-(5-phenylethynyl-thiophen-2-yl)-imidazo[1,2-a]pyridin-3-yl]-(4-methoxy-benzyl)-amine]
93 | – | COc1ccc(CNc2c(-c3ccc(C#Cc4ccccc4)s3)nc3ccccn23)cc1 [Example 16, (4-methoxy-benzyl)-[2-(5-phenylethynyl-thiophen-2-yl)-imidazo[1,2-a]pyridin-3-yl]-amine]
96 | – | COc1ccc(CNc2c(-c3ccc(C#Cc4ccccc4)s3)nc3cnccn23)cc1 [Example 17, (4-methoxy-benzyl)-[2-(5-phenylethynyl-thiophen-2-yl)-imidazo[1,2-a]pyrazin-3-yl]-amine]
– | 7.19 | CC(C)(C)Nc1c(-c2ccc(C#Cc3ccccc3)s2)nc2cnccn12 [Example 18, tert-butyl-[2-(5-phenylethynyl-thiophen-2-yl)-imidazo[1,2-a]pyrazin-3-yl]-amine]
91 | – | COc1cccc(CNc2c(-c3ccc(C#Cc4ccccc4)s3)nc3cccc(C)n23)c1 [Example 21, (3-methoxy-benzyl)-[5-methyl-2-(5-phenylethynyl-thiophen-2-yl)-imidazo[1,2-a]pyridin-3-yl]-amine]
84 | – | COc1cccc(CNc2c(-c3ccc(C#Cc4ccccc4)s3)nc3c(C)cccn23)c1 [Example 22, (3-methoxy-benzyl)-[8-methyl-2-(5-phenylethynyl-thiophen-2-yl)-imidazo[1,2-a]pyridin-3-yl]-amine]
86 | – | COc1cccc(CNc2c(-c3ccc(C#Cc4ccccc4)s3)nc3cc(C)cc(C)n23)c1 [Example 23, [5,7-dimethyl-2-(5-phenylethynyl-thiophen-2-yl)-imidazo[1,2-a]pyridin-3-yl]-(3-methoxy-benzyl)-amine]
94 | – | COc1cccc(CNc2c(-c3ccc(C#Cc4ccccc4)s3)nc3c(OCc4ccccc4)cccn23)c1 [Example 24, [8-benzyloxy-2-(5-phenylethynyl-thiophen-2-yl)-imidazo[1,2-a]pyridin-3-yl]-(3-methoxy-benzyl)-amine]
81 | – | COc1cccc(CNc2c(-c3ccc(C#Cc4ccccc4)s3)nc3ccccn23)c1 [Example 25, (3-methoxy-benzyl)-[2-(5-phenylethynyl-thiophen-2-yl)-imidazo[1,2-a]pyridin-3-yl]-amine]
97 | – | COc1cccc(CNc2c(-c3ccc(C#Cc4ccccc4)s3)nc3cnccn23)c1 [Example 26, (3-methoxy-benzyl)-[2-(5-phenylethynyl-thiophen-2-yl)-imidazo[1,2-a]pyrazin-3-yl]-amine]
98 | – | Cc1ccn2c(NC(C)c3ccccc3)c(-c3ccc(C#Cc4ccccc4)s3)nc2c1 (stereo not drawn) [Example 28, [7-methyl-2-(5-phenylethynyl-thiophen-2-yl)-imidazo[1,2-a]pyridin-3-yl]-(1-phenyl-ethyl)-amine]
– | 6.28 | CC(Nc1c(-c2ccc(C#Cc3ccccc3)s2)nc2cnccn12)c1ccccc1 (stereo not drawn) [Example 31, (1-phenyl-ethyl)-[2-(5-phenylethynyl-thiophen-2-yl)-imidazo[1,2-a]pyrazin-3-yl]-amine]

Further lines, the compound ahead of its results:

SMILES | inhibition at 10 µM [%] | pIC50
Cc1cccc2nc(-c3ccc(C#Cc4ccccc4)s3)c(NCC3CCCCC3)n12 [Example 2, cyclohexylmethyl-[5-methyl-2-(5-phenylethynyl-thiophen-2-yl)-imidazo[1,2-a]pyridin-3-yl]-amine] | 95 | –
Cc1ccc2nc(-c3ccc(C#Cc4ccccc4)s3)c(NCC3CCCCC3)n2c1 [Example 3, cyclohexylmethyl-[6-methyl-2-(5-phenylethynyl-thiophen-2-yl)-imidazo[1,2-a]pyridin-3-yl]-amine] | 95 | –
Cc1ccn2c(NCC3CCCCC3)c(-c3ccc(C#Cc4ccccc4)s3)nc2c1 [Example 4, cyclohexylmethyl-[7-methyl-2-(5-phenylethynyl-thiophen-2-yl)-imidazo[1,2-a]pyridin-3-yl]-amine] | 91 | –
Cc1cccn2c(NCC3CCCCC3)c(-c3ccc(C#Cc4ccccc4)s3)nc12 [Example 5, cyclohexylmethyl-[8-methyl-2-(5-phenylethynyl-thiophen-2-yl)-imidazo[1,2-a]pyridin-3-yl]-amine] | 100 | –
Cc1cc(C)n2c(NCC3CCCCC3)c(-c3ccc(C#Cc4ccccc4)s3)nc2c1 [Example 6, cyclohexylmethyl-[5,7-dimethyl-2-(5-phenylethynyl-thiophen-2-yl)-imidazo[1,2-a]pyridin-3-yl]-amine] | 92 | –
C(#Cc1ccc(-c2nc3c(OCc4ccccc4)cccn3c2NCC2CCCCC2)s1)c1ccccc1 [Example 7, [8-benzyloxy-2-(5-phenylethynyl-thiophen-2-yl)-imidazo[1,2-a]pyridin-3-yl]-cyclohexylmethyl-amine] | 89 | –
C(#Cc1ccc(-c2nc3ncccn3c2NCC2CCCCC2)s1)c1ccccc1 [Example 9, cyclohexylmethyl-[2-(5-phenylethynyl-thiophen-2-yl)-imidazo[1,2-a]pyrimidin-3-yl]-amine] | 98 | –
COc1ccc(CNc2c(-c3ccc(C#Cc4ccccc4)s3)nc3c(OCc4ccccc4)cccn23)cc1 [Example 15, [8-benzyloxy-2-(5-phenylethynyl-thiophen-2-yl)-imidazo[1,2-a]pyridin-3-yl]-(4-methoxy-benzyl)-amine] | 98 | –
Cc1ccc2nc(-c3ccc(C#Cc4ccccc4)s3)c(NC(C)(C)C)n2c1 [Example 19, tert-butyl-[6-methyl-2-(5-phenylethynyl-thiophen-2-yl)-imidazo[1,2-a]pyridin-3-yl]-amine] | 78 | –
COc1cccc(Nc2c(-c3ccc(C#Cc4ccccc4)s3)nc3c(OCc4ccccc4)cccn23)c1 [Example 20, [8-benzyloxy-2-(5-phenylethynyl-thiophen-2-yl)-imidazo[1,2-a]pyridin-3-yl]-(3-methoxy-phenyl)-amine] | 79 | –
Cc1ccc2nc(-c3ccc(C#Cc4ccccc4)s3)c(NC(C)c3ccccc3)n2c1 (stereo not drawn) [Example 27, [6-methyl-2-(5-phenylethynyl-thiophen-2-yl)-imidazo[1,2-a]pyridin-3-yl]-(1-phenyl-ethyl)-amine] | 82 | –
Cc1cc(C)n2c(NC(C)c3ccccc3)c(-c3ccc(C#Cc4ccccc4)s3)nc2c1 (stereo not drawn) [Example 29, [5,7-dimethyl-2-(5-phenylethynyl-thiophen-2-yl)-imidazo[1,2-a]pyridin-3-yl]-(1-phenyl-ethyl)-amine] | 87 | –
CC(Nc1c(-c2ccc(C#Cc3ccccc3)s2)nc2c(OCc3ccccc3)cccn12)c1ccccc1 (stereo not drawn) [Example 30, [8-benzyloxy-2-(5-phenylethynyl-thiophen-2-yl)-imidazo[1,2-a]pyridin-3-yl]-(1-phenyl-ethyl)-amine] | 73 | –
Cc1cc(C)n2c(NCc3ccccc3Cl)c(-c3ccc(C#Cc4ccccc4)s3)nc2c1 [Example 32, (2-chloro-benzyl)-[5,7-dimethyl-2-(5-phenylethynyl-thiophen-2-yl)-imidazo[1,2-a]pyridin-3-yl]-amine] | 98 | –
Fc1ccc(Nc2c(-c3ccc(C#Cc4ccccc4)s3)nc3cc(-c4ccccc4)ccn23)cc1Cl [Example 33, (3-chloro-4-fluoro-phenyl)-[7-phenyl-2-(5-phenylethynyl-thiophen-2-yl)-imidazo[1,2-a]pyridin-3-yl]-amine] | 98 | –
